ChEMBL document CHEMBL1811766, “Structure-activity relationship studies of novel pyrazole and imidazole carboxamides as cannabinoid-1 (CB1) antagonists” (Bioorg Med Chem Lett, 2011)

Assays:
Cannabinoid receptor 1 = Cannabinoid receptor 1 (Rattus norvegicus, UniProt P20272); experiment: Displacement of [3H]SR141716A from rat brain CB1 receptor at pH 7.4 after 1 hr by liquid scintillation counting
[1] = target: Cannabinoid receptor 2 (Homo sapiens) (UniProt P34972); experiment: Displacement of [3H]CP55940 from human cannabinoid CB2 receptor expressed in CHO cells at 1 uM at pH 7.4 after 1 hr by liquid scintillation counting; assay type: cell-based
Chain of Cannabinoid receptor 2 (Homo sapiens) (P34972 whole entry): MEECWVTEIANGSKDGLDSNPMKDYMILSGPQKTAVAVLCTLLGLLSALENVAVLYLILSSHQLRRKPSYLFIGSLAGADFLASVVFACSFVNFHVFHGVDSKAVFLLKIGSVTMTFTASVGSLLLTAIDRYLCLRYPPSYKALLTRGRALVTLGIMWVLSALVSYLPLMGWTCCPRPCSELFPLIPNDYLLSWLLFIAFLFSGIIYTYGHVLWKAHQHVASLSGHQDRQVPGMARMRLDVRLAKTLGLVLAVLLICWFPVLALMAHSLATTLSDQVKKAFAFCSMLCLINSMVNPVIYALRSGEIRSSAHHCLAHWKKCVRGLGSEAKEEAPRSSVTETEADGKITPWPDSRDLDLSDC

Mus musculus [2] = experiment: Inhibition of WIN-55212 induced hypothermia in Swiss albino mouse assessed as change temperature at 10 mg/kg, po administered 30 mins after WIN55212 challenge measured after 30 mins; assay type: functional; settings: 0.5 h
[3] = target: Voltage-gated inwardly rectifying potassium channel KCNH2 (Homo sapiens, UniProt Q12809); experiment: Inhibition of human ERG expressed in HEK293 cells assessed as inhibition of potassium channel current after 5 mins by patch clamp assay; assay type: cell-based
Chain of Voltage-gated inwardly rectifying potassium channel KCNH2 (Q12809 whole entry): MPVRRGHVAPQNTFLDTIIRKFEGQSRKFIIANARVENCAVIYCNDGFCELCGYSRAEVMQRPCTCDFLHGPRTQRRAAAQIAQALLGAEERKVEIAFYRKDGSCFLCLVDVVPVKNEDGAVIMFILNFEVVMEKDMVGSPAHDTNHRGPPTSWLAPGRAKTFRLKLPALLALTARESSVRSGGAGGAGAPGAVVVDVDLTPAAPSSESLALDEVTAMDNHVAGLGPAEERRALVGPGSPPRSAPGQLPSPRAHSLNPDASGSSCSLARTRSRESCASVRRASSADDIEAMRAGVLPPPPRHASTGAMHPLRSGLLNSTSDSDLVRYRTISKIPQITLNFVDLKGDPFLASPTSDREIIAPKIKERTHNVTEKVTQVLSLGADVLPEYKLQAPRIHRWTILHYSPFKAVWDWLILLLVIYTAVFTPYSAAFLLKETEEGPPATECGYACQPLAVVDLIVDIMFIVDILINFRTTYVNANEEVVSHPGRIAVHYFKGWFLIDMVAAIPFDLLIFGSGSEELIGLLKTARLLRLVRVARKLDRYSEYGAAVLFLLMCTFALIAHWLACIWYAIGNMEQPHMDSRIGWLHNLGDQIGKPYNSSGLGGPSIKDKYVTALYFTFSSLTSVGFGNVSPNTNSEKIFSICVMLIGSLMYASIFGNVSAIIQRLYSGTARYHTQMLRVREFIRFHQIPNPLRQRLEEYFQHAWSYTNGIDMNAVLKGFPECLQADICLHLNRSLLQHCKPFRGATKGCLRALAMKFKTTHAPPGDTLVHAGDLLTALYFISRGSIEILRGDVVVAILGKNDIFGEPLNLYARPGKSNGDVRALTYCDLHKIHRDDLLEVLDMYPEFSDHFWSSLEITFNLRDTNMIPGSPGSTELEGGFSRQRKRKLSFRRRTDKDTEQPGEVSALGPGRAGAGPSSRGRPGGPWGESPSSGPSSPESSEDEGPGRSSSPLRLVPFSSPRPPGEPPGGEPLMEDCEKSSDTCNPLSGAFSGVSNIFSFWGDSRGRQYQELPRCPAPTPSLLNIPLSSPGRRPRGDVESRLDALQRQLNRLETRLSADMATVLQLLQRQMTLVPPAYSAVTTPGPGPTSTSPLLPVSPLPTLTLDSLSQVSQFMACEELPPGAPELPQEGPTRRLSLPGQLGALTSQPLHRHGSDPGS

hERG (KCNH2) = hERG (KCNH2) (Homo sapiens, UniProt Q12809); experiment: Inhibition of human ERG expressed in HEK293 cells assessed as inhibition of potassium channel current at 30 uM after 5 mins by patch clamp assay; assay type: cell-based; settings: HEK293 cells expressing human ERG
Chain of hERG (KCNH2) (Q12809 whole entry): as above

Mus musculus [4] = experiment: Antiobesity activity in Swiss albino mouse assessed as reduction in acute food intake at 10 mg/kg, po administered as single dose relative to control; assay type: functional; parameters: scale not given: the % may be the effect or the level left
Mus musculus [5] = experiment: Antiobesity activity in Swiss albino mouse assessed as reduction in acute food intake at 30 mg/kg, po administered as single dose relative to control; assay type: functional; parameters: scale not given: the % may be the effect or the level left
Mus musculus [6] = experiment: Antiobesity activity in Swiss albino mouse assessed as reduction in acute food intake administered orally as single dose; assay type: functional, organism-based
[7] = Ratio of drug level in brain to plasma in Swiss albino mouse at 30 mg/kg, po measured 1 hr post dose; assay type: ADME, organism-based; parameters: dose 30 mg/kg, route oral; settings: read-out: BPR
[8] = AUC (0 to 24 hrs) in Swiss albino mouse at 30 mg/kg, po; assay type: ADME, organism-based; parameters: time < 24 hr, dose 30 mg/kg, route oral; settings: plasma
[9] = Cmax in Swiss albino mouse at 30 mg/kg, po; assay type: ADME, organism-based; parameters: dose 30 mg/kg, route oral; settings: in vivo
[10] = Half life in Swiss albino mouse at 30 mg/kg, po; assay type: ADME, organism-based; parameters: dose 30 mg/kg, route oral; settings: in vivo
Mus musculus [11] = experiment: Antiobesity activity in C57BL/6 mouse assessed as reduction in body weight at 10 mg/kg, po QD for 15 days; assay type: functional; parameters: scale not given: the % may be the effect or the level left
[12] = target: Cannabinoid receptor 1 (Rattus norvegicus) (UniProt P20272); experiment: Displacement of [3H]SR141716A from rat brain CB1 receptor at 100 nM at pH 7.4 after 1 hr by liquid scintillation counting
Chain of Cannabinoid receptor 1 (Rattus norvegicus) (P20272 whole entry): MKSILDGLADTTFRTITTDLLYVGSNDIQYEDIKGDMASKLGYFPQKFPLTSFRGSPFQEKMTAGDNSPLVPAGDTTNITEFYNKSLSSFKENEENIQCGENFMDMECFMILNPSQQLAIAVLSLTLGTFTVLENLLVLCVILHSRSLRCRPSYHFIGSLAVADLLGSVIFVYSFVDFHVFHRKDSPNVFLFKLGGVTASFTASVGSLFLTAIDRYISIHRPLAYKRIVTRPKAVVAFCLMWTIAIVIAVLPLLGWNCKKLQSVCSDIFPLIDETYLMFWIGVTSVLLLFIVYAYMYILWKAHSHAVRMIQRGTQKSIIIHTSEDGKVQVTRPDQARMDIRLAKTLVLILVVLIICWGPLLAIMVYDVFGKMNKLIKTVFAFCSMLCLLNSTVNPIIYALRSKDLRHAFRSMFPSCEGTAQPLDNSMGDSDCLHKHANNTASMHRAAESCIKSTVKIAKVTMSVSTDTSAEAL

[13] = target: Cannabinoid receptor 1 (Rattus norvegicus) (UniProt P20272); experiment: Displacement of [3H]SR141716A from rat brain CB1 receptor at 1 uM at pH 7.4 after 1 hr by liquid scintillation counting
Mus musculus [14] = experiment: Inhibition of WIN-55212 induced hypothermia in Swiss albino mouse assessed as change temperature at 3 mg/kg, po administered 30 mins after WIN55212 challenge measured after 30 mins; assay type: functional; settings: 0.5 h

Chain of Cannabinoid receptor 1 (P20272 whole entry): as above

Compound `CC(C)(NC(=O)c1cn(-c2ccc(Cl)cc2Cl)c(-c2ccc(Cl)cc2)n1)c1nnc(C(F)(F)F)o1` has an IC50 (Cannabinoid receptor 1) of 13 nM.

In the case of `Cn1nnnc1C(C)(C)NC(=O)c1nn(-c2ccc(Cl)cc2Cl)c2c1CCCc1cc(Cl)ccc1-2`, the IC50 (Cannabinoid receptor 1) is reported as 31 nM.

For `Cc1c(C(=O)NC2(c3noc(C(F)(F)F)n3)CC2)nn(-c2ccc(Cl)cc2Cl)c1-c1ccc(Cl)cc1`, the inhibition [1] was 49%, the IC50 (Cannabinoid receptor 1) was 0.1 nM and the inhibition in vivo at 10 mg/kg (Mus musculus [2]) was 97%. For the same compound, the IC50 [3] was over 30000 nM, the inhibition at 5 min, 30 µM (hERG (KCNH2)) was 7.2% and the Activity (Mus musculus [4]) was 31%. The Activity (Mus musculus [5]) was 53%, the Activity (Mus musculus [6]) was “Dose-dependent effect” and the Kp at 1 h [7] was 0.21. For the same compound, the AUC(0-t) at 24 h [8] was 4300 ng·h/mL, the Cmax [9] was 350 ng/mL and the half-life [10] was 4.22 h. It also gave an Activity (Mus musculus [11]) of 11%.

For `CCc1c(C(=O)NC(C)(C)c2nnn(C)n2)nn(-c2ccc(Cl)cc2Cl)c1-c1ccc(Cl)cc1`, the IC50 (Cannabinoid receptor 1) was 39 nM.

Work on `CCOC(=O)COc1ccc(-c2c(CC)c(C(=O)NC(C)(C)c3nnnn3C)nn2-c2ccc(Cl)cc2Cl)cc1` yielded an inhibition [12] of 32%.

`COc1ccc2c(c1)CCCc1c(C(=O)NC(C)(C)c3nnnn3C)nn(-c3ccc(Cl)cc3Cl)c1-2` gave an inhibition [12] of 38%.

Compound `CCc1c(C(=O)NC(C)(C)c2nnnn2C)nn(-c2ccc(Cl)cc2Cl)c1-c1ccc(O)cc1` has an inhibition [12] of 23%.

For `Cc1c(C(=O)NC(C)(C)c2cn3cc(Cl)ccc3n2)nn(-c2ccc(Cl)cc2Cl)c1-c1ccc(Cl)cc1`, the IC50 (Cannabinoid receptor 1) was 88 nM.

Work on `Cc1c(C(=O)NC(C)(C)c2nnnn2C)nc(-c2ccc(Cl)cc2Cl)n1-c1ccc(Cl)cc1` yielded an inhibition [12] of 42%.

Work on `CC(C)(NC(=O)c1cn(-c2ccc(Cl)cc2Cl)c(-c2ccc(Cl)cc2)n1)c1noc(C(F)(F)F)n1` yielded an IC50 (Cannabinoid receptor 1) of 30 nM.

`Cc1c(C(=O)NC(C)(C)c2nc(CC(=O)O)cs2)nn(-c2ccc(Cl)cc2Cl)c1-c1ccc(Cl)cc1` showed an inhibition [13] of 50%.

Compound `CCC(C)(NC(=O)c1nn(-c2ccc(Cl)cc2Cl)c(-c2ccc(Cl)cc2)c1C)c1noc(C(F)(F)F)n1` (centres undefined) has an IC50 (Cannabinoid receptor 1) of 6 nM.

Compound `Cc1c(C(=O)NN2CCCCC2)nn(-c2ccc(Cl)cc2Cl)c1-c1ccc(Cl)cc1` [RIMONABANT] has an inhibition [1] of 34%, an inhibition in vivo at 3 mg/kg (Mus musculus [14]) of 99% and an IC50 [3] of 2790 nM. For the same compound, the Activity (Mus musculus [4]) was 71% and the Kp at 1 h [7] was 3.64.

`O=C(NC1(c2noc(C(F)(F)F)n2)CC1)c1nn(-c2ccc(Cl)cc2Cl)c(-c2ccc(Cl)cc2)c1CO` showed an inhibition [1] of 18%, an IC50 (Cannabinoid receptor 1) of 0.1 nM and an inhibition in vivo at 10 mg/kg (Mus musculus [2]) of 99%.

Compound `Cc1c(C(=O)NC(C)(C)c2noc(C(F)(F)F)n2)nn(-c2ccc(Cl)cc2Cl)c1-c1ccc(Cl)cc1` has an IC50 (Cannabinoid receptor 1) of 3 nM.

Work on `CCOC(=O)c1c(C(=O)NC2(c3noc(C(F)(F)F)n3)CC2)nn(-c2ccc(Cl)cc2Cl)c1-c1ccc(Cl)cc1` yielded an IC50 (Cannabinoid receptor 1) of 1 nM.

`CCOC(=O)c1sc(C(C)(C)NC(=O)c2nn(-c3ccc(Cl)cc3Cl)c(-c3ccc(Cl)cc3)c2C)nc1C` showed an IC50 (Cannabinoid receptor 1) of 22 nM.

`Cc1nc(C(C)(C)NC(=O)c2nn(-c3ccc(Cl)cc3Cl)c(-c3ccc(Cl)cc3)c2C)no1` gave an IC50 (Cannabinoid receptor 1) of 33 nM.

For `Cc1ncc(C(C)(C)NC(=O)c2nn(-c3ccc(Cl)cc3Cl)c(-c3ccc(Cl)cc3)c2C)s1`, the IC50 (Cannabinoid receptor 1) was 12 nM.

Compound `Cc1c(C(=O)NC(C)(C)c2nnnn2C)nn(-c2ccc(Cl)cc2Cl)c1-c1ccc(Cl)cc1` has an IC50 (Cannabinoid receptor 1) of 145 nM.

With `CCc1c(C(=O)NC(C)(C)c2noc(C(F)(F)F)n2)nc(-c2ccc(Cl)cc2Cl)n1-c1ccc(Cl)cc1` the IC50 (Cannabinoid receptor 1) was 3 nM.
